{"source": "patent US20220098197A1", "about": "“SALTS OF HETEROCYCLIC COMPOUND AND USE THEREOF” (priority 2019, published 2022)", "key": {"[1]": {"system": "CS-induced ALI mice", "test": "CS-induced lung injury model: inflammatory cells counting in BALF", "type": "in vivo, Balb/c mice", "settings": "intragastric before CS exposure, 7 days; CT-NA 10 and 30 mg/kg, Dex 1 mg/kg; BALF 24 hrs after last CS; p<0.01", "method": "Specific pathogen-free (SPF) female Balb/c mice (22-28 g; aged 8 weeks) were purchased from Shanghai SIPPR-BK Experimental Animal Co., Ltd. […] Model preparation: The mice were randomly divided into 5 groups (12 mice in each group), which were the control group (the mice were exposed to fresh air), the saline group (the mice were exposed to cigarette smoke), dexamethasone (Dex) group (1 mg/kg) (the mice were exposed to cigarette smoke), CT-NA 10 mg/kg group and CT-NA 30 mg/kg group (the mice were exposed to cigarette smoke). According to the grouping, the mice were intragastrically administered saline, Dex and CT-NA, respectively. Thereafter, the mice were exposed to fresh air or cigarette smoke generated from 3R4F research-grade cigarettes (containing about 600 mg TPM/m^3 and 29.9 mg nicotine/m^3) in a cuboid plastic box (65×50x×45 cm). Ten cigarettes were burned every day for seven days. […] 24 hrs after the last exposure to the cigarette smoke, the partial pressure of oxygen (PO2) of all mice was measured by the Moor VMS-OXY™ measuring instrument, which was used to measure the oxygenated/deoxygenated hemoglobin concentration and oxygen saturation (percentage) in the microcirculation at the wavelength range of 500 to 650 nm. […] The supernatant was aliquoted and stored at −80° C. until the cytokine or albumin concentration was measured. […]"}, "[2]": {"system": "CS-induced ALI mice", "test": "CS-induced lung injury model: in vivo cytokine assay by ELISA in BALF", "design": "species or system Balb/c mice", "settings": "p<0.01", "method": "Model preparation: The mice were randomly divided into 5 groups (12 mice in each group), which were the control group (the mice were exposed to fresh air), the saline group (the mice were exposed to cigarette smoke), dexamethasone (Dex) group (1 mg/kg) (the mice were exposed to cigarette smoke), CT-NA 10 mg/kg group and CT-NA 30 mg/kg group (the mice were exposed to cigarette smoke). According to the grouping, the mice were intragastrically administered saline, Dex and CT-NA, respectively. […] 24 hrs after the last exposure to the cigarette smoke, the partial pressure of oxygen (PO2) of all mice was measured by the Moor VMS-OXY™ measuring instrument, which was used to measure the oxygenated/deoxygenated hemoglobin concentration and oxygen saturation (percentage) in the microcirculation at the wavelength range of 500 to 650 nm. […] The expression levels of pro-inflammatory cytokines (TNF-α, IL-1β, IL-6), chemokines (KC) and anti-inflammatory cytokines (IL-10) in the BALF supernatant were determined using respective ELISA determination kits according to the instruction manual. After the optical density at 450 nm was measured, the expression of cytokines was calculated via the standard curve."}, "[3]": {"system": "isolated peritoneal macrophages", "test": "RT-PCR analysis, LPS- or PGD2-stimulated peritoneal macrophages", "type": "cell-based, mice", "settings": "CT-NA 10 and 100 μM, P<0.05 or P<0.01", "method": "The method was briefly described as follows. Thioglycolate (4%) was intraperitoneally injected to mice at a dose of 20 ml/kg of body weight for three consecutive days. 48 h after the last thioglycolate injection (on day 5), the peritoneal macrophages were isolated from the peritoneal lavage of the euthanized mice. The isolated peritoneal macrophages were added to a 12-well plate (4×10^5/well) and cultured at 37° C. Non-adherent cells were removed by gently washing three times with warm PBS. At this time, more than 90% of the cells were macrophages, which were cultured in DMEM/high glucose medium containing penicillin (100 U/ml), streptomycin (100 μg/ml) and 10% FBS at 37° C. After acclimation, serum-free DMEM/high glucose was added to a 12-well plate for 10-12 hrs, and then treated with different concentrations of LPS ([…]) for 24 hrs. Afterward, the supernatant of the peritoneal macrophages was collected to measure the protein level of PGD2 using ELISA kits according to the method of the instructions.\nFor ELISA and RT-PCR, RAW 264.7 macrophages were acclimated to two 12-well plates at 70-80% confluence. Thereafter, the medium in the 12-well plate was replaced with serum-free RPMI-1640 medium for 10-12 hrs and then exposed to CT-NA (10 and 100 μM) for 1 hour. […]"}}, "data": [{"smiles": "CN([C@@H]1CCc2c(CC(=O)[O-])c3cccnc3n2C1)S(=O)(=O)c1ccc(F)cc1.[Na+]", "note": "[Sodium salt hydrate]", "values": [{"measurement": "number of total cells, macrophages and neutrophils in BALF", "setting": "[1]", "result": "significantly reduced"}, {"measurement": "CS-induced overexpression of TNF-α, IL-1β, IL-6 and KC in BALF", "setting": "[2]; CT-NA 10 and 30 mg/kg intragastric", "result": "effectively reduced"}, {"measurement": "CS-induced inhibition of IL-10 in BALF", "setting": "[2]; CT-NA treatment", "result": "reversed"}, {"measurement": "mRNA expressions of IL-1β, TNF-α, IL-6 and KC, LPS-stimulated", "setting": "[3]; LPS, dose-dependent", "result": "reduced"}, {"measurement": "mRNA expressions of IL-1β, TNF-α, IL-6 and KC, PGD2-stimulated", "setting": "[3]; PGD2, dose-dependent", "result": "reduced"}]}]}
